Results: PubChem BioAssay (NCI)
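Five compound concentrations were applied to cells in 96-well plates for 48 hours; endpoints were derived by simple linear interpolation of the resulting dose-response curve. The concentration for 50% growth inhibition is given as GI50. TGI: concentration producing complete growth inhibition.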

Legend:
Assay in all cases: NCI-60 cell line screen, 48 h
CAKI-1 renal = tested on: CAKI-1 renal
HOP-62 NSCLC = tested on: HOP-62 NSCLC
K-562 leukemia = tested on: K-562 leukemia
MOLT-4 leukemia = tested on: MOLT-4 leukemia
NCI-H23 lung = tested on: NCI-H23 lung
OVCAR-8 ovarian = tested on: OVCAR-8 ovarian
UACC-62 melanoma = tested on: UACC-62 melanoma
SK-MEL-28 melanoma = tested on: SK-MEL-28 melanoma
DU-145 prostate = tested on: DU-145 prostate
NCI/ADR-RES ovarian = tested on: NCI/ADR-RES ovarian

SMILES	TGI (CAKI-1 renal) [µM]	TGI (HOP-62 NSCLC) [µM]	TGI (K-562 leukemia) [µM]	TGI (MOLT-4 leukemia) [µM]	TGI (NCI-H23 lung) [µM]	TGI (OVCAR-8 ovarian) [µM]	TGI (UACC-62 melanoma) [µM]	TGI (SK-MEL-28 melanoma) [µM]	GI50 (CAKI-1 renal) [nM]	GI50 (DU-145 prostate) [µM]	TGI (DU-145 prostate) [µM]	GI50 (HOP-62 NSCLC) [µM]	GI50 (K-562 leukemia) [nM]	GI50 (MOLT-4 leukemia) [nM]	GI50 (NCI-H23 lung) [nM]	GI50 (OVCAR-8 ovarian) [nM]	GI50 (SK-MEL-28 melanoma) [µM]	GI50 (UACC-62 melanoma) [nM]	GI50 (NCI/ADR-RES ovarian) [µM]	TGI (NCI/ADR-RES ovarian) [µM]
Cn1c(N)nc(=O)c2c1N(C1OC(CO)C(O)C1O)CN2Cc1ccccc1 (configuration not stated)	> 100	> 100	> 100	> 100	> 100	> 100	> 100													
Cc1[nH]c(=O)[nH]c1C(=O)c1ccc(-n2ccnc2)cc1	> 100	> 100	> 100	> 100		> 100	> 100	> 100												
CCc1cc(CCC(=O)Nc2ccccc2[N+](=O)[O-])[nH]c(=S)n1		> 100	> 100	> 100	> 100	> 100	> 100	> 100												
CCc1ccc(C(=Nc2ccc(N(C)C(=O)CN3CCN(C)CC3)cc2)c2c(O)[nH]c3ccc(C(=O)OC)cc23)cc1	1.48	2.17	1.12	0.908	2.03	3.21	3.2	2.42	135	0.528	1.84	0.51	73	176	417	772	1.17	1370		
N#CC1(C#N)C2C=CC(c3coc4cccc2c34)C1(C#N)C#N (configuration not stated)		46.5	6.22	6.35	36.9	10.4	24.4	10.8												
Nc1ccc(-c2cccs2)cc1NC(=O)c1ccc(CCCC(=O)Nc2ccc(C3CC3N)cc2)cc1 (configuration not stated)	> 100					4.48	5.47		> 100000							1650		1280	> 100	> 100
CCCCCCCCCNC(=O)/C=C/c1ccc(O)c(O)c1	24.2	25.1		17.4	39.2	59.3	29	> 100	3910	17	82.1	12.2		474	17700	24000	19.7	15300	15.4	46.8
C=C(C(=C)N1N=NC2C3CCC(C3)C21)N1N=NC2C3CCC(C3)C21 (configuration not stated)	> 100	> 100	> 100	> 100	> 100	> 100	> 100	> 100												
CCOC(=O)c1cnc2c(ccc3ncccc32)c1NCCCN(CC)CC	> 100	> 100	> 100	72.2	> 100		> 100	> 100												
CCCCCCCCCC(=O)OCC1OC(n2cc(F)c(=O)[nH]c2=O)C(NC(=O)OCc2ccccc2)C(OC(=O)CCCCCCCCC)C1O (configuration not stated)	> 100	> 100	> 100	> 100	62	80.1	> 100	> 100												
CC(C(N)C(=O)NC(C(=O)O)C1OC(n2ccc(=O)[nH]c2=O)C(O)C1O)C(O)c1ccc(O)cn1 (configuration not stated)	> 100	> 100		> 100	> 100	> 100	> 100	> 100			> 100									> 100
CC(C)(C)c1ccc(OCCOCCOc2ccc(C(C)(C)C)cc2S(=O)(=O)Nc2ccc([N+](=O)[O-])cc2)c(S(=O)(=O)Nc2ccc([N+](=O)[O-])cc2)c1	> 100	> 100	> 100	43.9	> 100	> 100	> 100	> 100												
NS(=O)(=O)CC1CC[CH-]CC1.[Cl-].[Cl-].[Cl-].[Cl-].[Cl-].[Sb+5].c1ccncc1	> 100	> 100	> 100		> 100	> 100	> 100	> 100	> 100000	> 100	> 100	> 100	> 100000		> 100000	> 100000	> 100	> 100000	> 100	> 100
CC1=C(O)/C(=C/C(C)CCC/C(C)=C/C=C/C(C)CCCc2ccoc2)OC1=O (configuration not stated)	> 100	59.6			59.3	> 100		> 100												
COc1cc(C2=N/C(=C/c3cccs3)C(=O)O2)cc(OC)c1OC	> 100	> 100	> 100	> 100	> 100	> 100	> 100	> 100			> 100									
C=C1CC2CC(O)CC(C1)C2 (configuration not stated)	> 100	> 100		> 100	> 100	> 100	> 100	> 100												
Cc1cc2c(C(N)=O)c(N)n(-c3c(C)ccc(O)c3C)c2nc1C	10.3	> 100	> 100	> 100	4.16	18		> 100	400	4.16	19.7	13	2000	2860	1250	3120	4.73		6.48	32.7
COc1ccc(/C=C2\CCC(CCN(C)C)(C3=CCCC3)C2=O)cc1Br (configuration not stated)	21.2	30.9	5.23	6.01	29	21.9		7.7												
CSc1snc2sc3c(Cl)nnnc3c12	15.9	31.9	5.73	11.4	36	21	29.2	23.2												
Cc1ccc(C(=O)/C(=C\c2ccc([N+](=O)[O-])cc2)S(=O)Cc2ccc(Cl)cc2)cc1 (configuration not stated)	4.04	6.21		6.14	3.89	5.13	3.22	3.4	1810	1.75	3.21	2.39		1200	1830	2050	1.76	1650	2.72	7.97
